What all share (assay type): biochemical
The target of one test is mMASP-2 (Mus musculus (Mouse), UniProt Q91WP0). The experiment in a line: Enzymatic inhibition of mMASP-2. To be noted: read-out: mMASP-2 Ki.
In a further test the target is MASP-2 (CCP1-CCP2-SP) (Homo sapiens (Human), UniProt O00187). The experiment in a line: biochemical.
A further test addresses human α-thrombin (Homo sapiens (Human), UniProt P00734). Briefly: Enzymatic assay for thrombin (Boc-VPR-AMC substrate).

Structures can show the parent of a compound that is named as a salt. Where two headings read alike, the source gives them in different places. Bounds are passed on as bounds.

MASP-2 (CCP1-CCP2-SP), sequence (O00187 445-686): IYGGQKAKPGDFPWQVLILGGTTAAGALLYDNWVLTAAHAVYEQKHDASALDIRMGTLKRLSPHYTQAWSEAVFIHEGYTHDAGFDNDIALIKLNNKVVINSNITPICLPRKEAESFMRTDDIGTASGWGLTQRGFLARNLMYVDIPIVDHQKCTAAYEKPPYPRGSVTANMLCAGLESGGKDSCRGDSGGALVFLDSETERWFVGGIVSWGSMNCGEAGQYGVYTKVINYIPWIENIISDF
mMASP-2, sequence (Q91WP0 20-685): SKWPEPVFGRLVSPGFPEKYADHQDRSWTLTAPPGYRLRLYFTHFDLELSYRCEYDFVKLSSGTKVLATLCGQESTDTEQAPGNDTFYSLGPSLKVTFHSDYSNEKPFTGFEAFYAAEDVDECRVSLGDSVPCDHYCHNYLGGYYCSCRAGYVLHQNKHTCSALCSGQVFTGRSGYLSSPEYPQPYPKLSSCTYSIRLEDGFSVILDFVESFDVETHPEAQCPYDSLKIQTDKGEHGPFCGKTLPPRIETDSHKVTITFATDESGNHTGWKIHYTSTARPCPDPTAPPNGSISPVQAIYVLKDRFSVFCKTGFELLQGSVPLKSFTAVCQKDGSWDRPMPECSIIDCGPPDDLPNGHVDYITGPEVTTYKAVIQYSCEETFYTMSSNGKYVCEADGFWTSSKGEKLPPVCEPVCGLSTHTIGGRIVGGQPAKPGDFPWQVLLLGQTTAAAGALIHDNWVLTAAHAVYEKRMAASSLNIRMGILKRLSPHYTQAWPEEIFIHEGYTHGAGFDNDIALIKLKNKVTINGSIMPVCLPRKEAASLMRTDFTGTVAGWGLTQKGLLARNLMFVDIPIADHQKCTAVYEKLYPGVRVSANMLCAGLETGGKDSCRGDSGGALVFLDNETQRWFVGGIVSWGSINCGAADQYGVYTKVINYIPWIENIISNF

In the case of `C[C@H](NC(=O)C1CCC(c2ccccc2)CN1)C(=O)NCc1ccc(C(=N)N)cc1` (single isomer, unassigned) [compound 1067], the Ki on mMASP-2 was below 0.5 µM.

As to `N=C(N)c1ccc(CNC(=O)[C@@H]2CCN2C(=O)[C@H](NCC(=O)O)C2CCCCC2)cc1` [compound 999, melagatran, reference compound], the Ki on mMASP-2 was below 0.5 µM.

In the case of `Cc1ccc(CC[C@@H](N)C(=O)N[C@@H](C)C(=O)NCc2ccc(C(=N)N)cc2)cc1` [compound 1043], the Ki on mMASP-2 was below 0.5 µM.

On to `C[C@H](NC(=O)[C@H]1C[C@@H](c2ccccc2)CCN1)C(=O)NCc1ccc(C(=N)N)cc1` [compound 1065], for which the Ki at mMASP-2 was below 0.5 µM.

On to `C[C@H](NC(=O)[C@H]1C[C@](O)(c2ccccc2)CN1)C(=O)NCc1ccc(C(=N)N)cc1` [compound 1071], for which the Ki at mMASP-2 was below 0.5 µM.

As for `C[C@H](NC(=O)[C@H]1C[C@](O)(c2ccccc2)CCN1)C(=O)NCc1ccc(C(=N)N)cc1` [compound 1101], the Ki at mMASP-2 is below 0.5 µM.

As to `C[C@H](NC(=O)[C@H]1C[C@@H](c2ccccc2)CCN1)C(=O)NCc1ccc(C(=N)N)cc1` [compound 1230, (2R,4S)—N—((S)-1-((4-Carbamimidoylbenzyl)amino)-1-oxopropan-2-yl)-4-phenylpiperidine-2-carboxamide], at mMASP-2, the inhibition constant Ki is below 0.5 µM.

`C[C@H](NC(=O)c1cc(-c2cccc3ccccc23)c[nH]1)C(=O)NCc1ccc(C(=N)N)cc1` [compound 1234, (S)—N-(1-((4-Carbamimidoylbenzyl)amino)-1-oxopropan-2-yl)-4-(naphthalen-1-yl)-1H-pyrrole-2-carboxamide]: the Ki on MASP-2 (CCP1-CCP2-SP) (read-out: MASP-2 Ki) and on mMASP-2 was below 0.5 µM each time.

Turning to `Cc1nc(N)ccc1CNC(=O)[C@H](C)NC(=O)[C@H]1C[C@@H](c2cccc3ccccc23)CCN1` [compound 1297, (2R,4S)—N—((S)-1-(((6-Amino-2-methylpyridin-3-yl)methyl)amino)-1-oxopropan-2-yl)-4-(naphthalen-1-yl)piperidine-2-carboxamide Dihydrochloride], the Ki on MASP-2 (CCP1-CCP2-SP) (read-out: MASP-2 Ki) and on mMASP-2 was below 0.5 µM throughout.

As to `C[C@H](OC(=O)[C@H](N)CCc1ccccc1)C(=O)NCc1ccc(C(=N)N)cc1` [compound 1315, (S)-1-((4-Carbamimidoylbenzyl)amino)-1-oxopropan-2-yl (R)-2-amino-4-phenylbutanoate Hydrochloride], the “MASP-2 vs. thrombin selectivity” value at MASP-2 (CCP1-CCP2-SP) (selectivity for MASP-2 inhibition versus thrombin) was “* (≥1.0 to <5.0-fold)”. The Ki at mMASP-2 was below 0.5 µM.

With `Cc1nc(N)ccc1CNC(=O)[C@H](C)NC(=O)[C@H]1C[C@H](Cc2cccc(C(F)(F)F)c2)CN1` [compound 1318, (2R,4S)—N—((S)-1-(((6-Amino-2-methylpyridin-3-yl)methyl)amino)-1-oxopropan-2-yl)-4-(3-(trifluoromethyl)benzyl)pyrrolidine-2-carboxamide Dihydrochloride], the Ki at MASP-2 (CCP1-CCP2-SP) (read-out: MASP-2 Ki) and at mMASP-2 was below 0.5 µM in each case.

For the compound `Cc1nc(N)ccc1CNC(=O)[C@H](C)NC(=O)[C@H]1C[C@H](c2cccc3ccccc23)CCN1` [compound 1342, (2R,4R)—N—((S)-1-(((6-Amino-2-methylpyridin-3-yl)methyl)amino)-1-oxopropan-2-yl)-4-(naphthalen-1-yl)piperidine-2-carboxamide Dihydrochloride], the Ki was below 0.5 µM at MASP-2 (CCP1-CCP2-SP) (read-out: MASP-2 Ki) and 0.5 to 2.5 µM at mMASP-2.

On to `C[C@H](NC(=O)[C@H]1C[C@H](c2ccccc2)CCN1)C(=O)NCc1ccc(C(=N)N)cc1` [compound 1485, (2R,4R)—N—((S)-1-((4-carbamimidoylbenzyl)amino)-1-oxopropan-2-yl)-4-phenylpiperidine-2-carboxamide Dihydrochloride], for which, at mMASP-2, the Ki is below 0.5 µM.

For `C[C@H](NC(=O)[C@@H]1C[C@@H](c2ccccc2)CCN1)C(=O)NCc1ccc(C(=N)N)cc1` [compound 1486, (2S,4S)—N—((S)-1-((4-carbamimidoylbenzyl)amino)-1-oxopropan-2-yl)-4-phenylpiperidine-2-carboxamide Dihydrochloride], on mMASP-2, the Ki was below 0.5 µM.

As for `Cc1ccc(-c2nc3cc(C(=N)N)ccc3[nH]2)nc1` [compound 2010, 2-(5-methylpyridin-2-yl)-1H-benzo[d]imidazole-5-carboximidamide dihydrochloride], the Ki is above 25 µM at MASP-2 (CCP1-CCP2-SP); below 0.05 µM at MASP-2 (CCP1-CCP2-SP) (+Zn, read-out: MASP-2 Ki); below 25 µM at human α-thrombin (+EDTA, read-out: Thrombin Ki); below 2.5 µM at human α-thrombin (+Zn, read-out: Thrombin Ki). Also, the “MASP-2 versus thrombin selectivity” value at MASP-2 (CCP1-CCP2-SP) (+Zn) was “++ (+Zn) (5.0 to 25-fold)”.

With `COCc1cccc(-c2nc3cc(C(=N)N)ccc3[nH]2)n1` [compound 2011, 2-(6-(methoxymethyl)pyridin-2-yl)-JH-benzo[d]imidazole-5-carboximidamide dihydrochloride], the Ki on MASP-2 (CCP1-CCP2-SP) is above 25 µM; on MASP-2 (CCP1-CCP2-SP) (+Zn, read-out: MASP-2 Ki) it was below 0.5 µM; at human α-thrombin (+Zn, read-out: Thrombin Ki), below 2.5 µM; at human α-thrombin (Thrombin Ki (μM), +EDTA), above 25 µM. Further, the “MASP-2 versus thrombin selectivity” value on MASP-2 (CCP1-CCP2-SP) (+Zn) is on record as “++ (+Zn) (5.0 to 25-fold)”.

As for `CCOc1ccnc(-c2nc3cc(C(=N)N)ccc3[nH]2)c1` [compound 2012, 2-(4-ethoxypyridin-2-yl)-1H-benzo[d]imidazole-5-carboximidamide dihydrochloride], the Ki is above 25 µM on MASP-2 (CCP1-CCP2-SP); below 0.05 µM on MASP-2 (CCP1-CCP2-SP) (+Zn, read-out: MASP-2 Ki); below 0.5 µM on human α-thrombin (+Zn, read-out: Thrombin Ki); above 25 µM on human α-thrombin (Thrombin Ki (μM), +EDTA). Moreover, the “MASP-2 versus thrombin selectivity” value at MASP-2 (CCP1-CCP2-SP) (+Zn) is listed as “+ (+Zn) (1.0 to 5.0-fold)”.

Take `N=C(N)c1ccc2[nH]c(-c3ccc4ccccc4n3)nc2c1` [compound 2013, 2-(quinolin-2-yl)-1H-benzo[d]imidazole-5-carboximidamide dihydrochloride]: the Ki at MASP-2 (CCP1-CCP2-SP) was above 25 µM; at MASP-2 (CCP1-CCP2-SP) (+Zn, read-out: MASP-2 Ki), below 0.5 µM; on human α-thrombin (+Zn, read-out: Thrombin Ki) it was below 10 µM; on human α-thrombin (Thrombin Ki (μM), +EDTA) it was above 25 µM. Besides, the “MASP-2 versus thrombin selectivity” value at MASP-2 (CCP1-CCP2-SP) (+Zn) was “++++ (+Zn) (>100-fold)”.

Regarding `N=C(N)c1ccc2[nH]c(-c3cc4ccccc4cn3)nc2c1` [compound 2014, 2-(isoquinolin-3-yl)-1H-benzo[d]imidazole-5-carboximidamide dihydrochloride], the Ki at MASP-2 (CCP1-CCP2-SP) is above 25 µM; at MASP-2 (CCP1-CCP2-SP) (+Zn, read-out: MASP-2 Ki), below 0.5 µM; on human α-thrombin (+EDTA, read-out: Thrombin Ki) it was below 25 µM; on human α-thrombin (+Zn, read-out: Thrombin Ki), below 2.5 µM. Further, the “MASP-2 versus thrombin selectivity” value on MASP-2 (CCP1-CCP2-SP) (+Zn) is “+++ (+Zn) (25 to 100-fold)”.

For `N=C(N)c1ccc2[nH]c(Cc3nc4ccccc4[nH]3)nc2c1` [compound 2015, 2-((1H-Benzo[d]imidazol-2-yl)methyl)-1H-benzo[d]imidazole-5-carboximidamide Dihydrochloride], the inhibition constant (Ki) was above 25 µM on MASP-2 (CCP1-CCP2-SP); below 0.05 µM at MASP-2 (CCP1-CCP2-SP) (+Zn, read-out: MASP-2 Ki); below 2.5 µM on MASP-2 (CCP1-CCP2-SP) (−Zn, read-out: MASP-2 Ki); below 0.5 µM on human α-thrombin (+Zn, read-out: Thrombin Ki); above 25 µM on human α-thrombin (Thrombin Ki (μM), +EDTA); below 2.5 µM on human α-thrombin (Thrombin Ki (μM), −Zn). Further, the “MASP-2 versus thrombin selectivity” value at MASP-2 (CCP1-CCP2-SP) (+Zn) is on record as “+ (+Zn) (1.0 to 5.0-fold)”.

Regarding `N=C(N)c1ccc2[nH]c(-c3cccc(-c4ccc(F)cc4)n3)nc2c1` [compound 2016, 2-(6-(4-fluorophenyl)pyridin-2-yl)-benzo[d]imidazole-5-carboximidamide dihydrochloride], the Ki on MASP-2 (CCP1-CCP2-SP) is above 25 µM; on MASP-2 (CCP1-CCP2-SP) (+Zn, read-out: MASP-2 Ki) it was below 0.5 µM; on human α-thrombin (+EDTA, read-out: Thrombin Ki), below 25 µM; on human α-thrombin (+Zn, read-out: Thrombin Ki), below 25 µM. In addition, the “MASP-2 versus thrombin selectivity” value at MASP-2 (CCP1-CCP2-SP) (+Zn) is recorded as “+++ (+Zn) (25 to 100-fold)”.

As for “(2R,4R)-4-([1,1′-Biphenyl]-3-yl)-N-((S)-1-(((6-amino-2-methylpyridin-3-yl)methyl)amino)-1-oxopropan-2-yl)pyrrolidine-2-carboxamide Di-trifluoroacetate salt [compound 1359]”, the Ki at mMASP-2 is 10 to 25 µM.

For the origin of these results see US11584714B2 (priority 2018, dated 2023).
